US20020115723A1, “Cysteine derivatives” (AJINOMOTO CO., INC., priority 1998, published 2002)

Columns and labels:
NF-κB = assay: Test on the function of inhibiting the activation of NF-κB induced by ultraviolet rays (gel shift assay); type: cell-based, human; conditions: for Inhibition ratio (%) of NF-κB activation: human epidermal cells, UVB 50 mJ/cm^2
Procedure: Test on the Function of Inhibiting the Activation of NF-κB Induced by Ultraviolet Rays.
After 18 hours had elapsed, the culture medium was substituted by a phenol red-free medium. The cells were exposed to ultraviolet rays (UVB: 50 mJ/cm^2) from an ultraviolet irradiator “Dermaray M-DMR-80” (ex Toshiba Medical Supply Co., Ltd.). After 4 to 5 hours had elapsed, the cells were collected, and the nucleoprotein was extracted therefrom in a manner known per se in the art. From the resulting nucleoprotein, the activated NF-κB was detected in accordance with the gel shift assay. The amount of the NF-κB was determined by measuring the radioactive value of the NF-κB band with the use of a bioimaging analyzer “BAS 2000” (ex Fuji Film Co., Ltd.).
The inhibition ratio of the activation of the NF-κB of the test compounds was calculated from the below-described formula (1).
Inhibition ratio of NF-κB activation (%)={1−(A1-A3)/(A2-A3)}×100 (1)
A1: radioactive value of the NF-κB upon addition of a test compound
A2: radioactive value of NF-κB when a test compound is not added
A3: radioactive value of NF-κB when a test compound is not added and is not exposed to ultraviolet rays.

Hairless mice (SKH-1) = assay: Test on inhibiting function of wrinkles formation induced by ultraviolet rays (No. 2), Components (A) and (B) in combination; type: in vivo, mouse; parameters: scale not given here
Procedure: Hairless mice (SKH-1, female, 5-6 weeks old) were exposed to ultraviolet rays (UVB) three times/week (Monday, Wednesday and Friday) for 5 weeks, each at 50 to 100 mJ/cm^2 by using the above-described “Dermaray M-DMR-80” (ex Toshiba Medical Supply Co., Ltd.). The test compound (N,N′-diacetyl-L-cystine dimethyl ester) was dissolved in a mixed solvent of propylene glycol, ethanol and water, and was applied to the back portion of each of the mice in an amount of 100 μl, 30 to 60 minutes before exposure to ultraviolet rays, just after the completion of the exposure, and on the days free from exposure to ultraviolet rays (Sunday, Tuesday, Thursday and Saturday). From two weeks after the exposure had started, the wrinkles formed on the back portion of each mouse were evaluated once a week based on the below-described standards, and they were indicated as scores. In addition, the function of the inventive compound for inhibiting wrinkle formation induced by ultraviolet rays was judged based on the below-described judging standards.
Test on Inhibiting Function of Wrinkles Formation Induced by Ultraviolet Rays (No. 2)
Function of suppressing ultraviolet ray-induced wrinkles formation by the synergistic effects when Components (A) and (B) were used in combination, was judged in a similar manner to Test Example 2. Fifteen to twenty mice were divided into 4 groups, that is, a 1st group to which a mixed solvent of propylene glycol, ethanol and water was to be applied, a 2nd group to which a solution of only Component (A) dissolved in the above-described solvent was to be applied, a 3rd group to which a solution of only Component (B) dissolved in the above-described solvent was to be applied, and a 4th group to which a solution of both Components (A) and (B) dissolved in the above-described solvent was to be applied. An average score of each group was determined.

AP-1 = assay: Test on the function of inhibiting the AP-1 activation induced by ultraviolet rays (gel shift assay); type: cell-based, human; conditions: single compound
Procedure: Test on the Function of Inhibiting the AP-1 Activation Induced by Ultraviolet Rays.
In a similar manner to Test Example 1, a nucleoprotein was obtained. Then, the activated AP-1 was detected by the gel shift assay. The radioactive value of the AP-1 band was measured as in Test Example 1, whereby the amount of the AP-1 was determined. The AP-1 activation inhibiting ratio of the test compounds was calculated by the below-described equation (2). The results of the test compounds according to the present invention are shown below in Table 4a, while those of the comparative compounds are shown below in Table 4b.
AP-1 activation inhibiting ratio (%)={1−(B1-B3)/(B2-B3)}×100 (2)
B1: radioactive value of the AP-1 band upon addition of a test compound.
B2: radioactive value of the AP-1 band when a test compound is not added.
B3: radioactive value of the AP-1 band when a test compound is not added and is not exposed to ultraviolet rays.

| SMILES | Inhibition ratio (%) of NF-κB activation (NF-κB; addition concentration 0.01 mM) [%] | Inhibition ratio (%) of NF-κB activation (NF-κB; addition concentration 0.1 mM) [%] | other results |
| --- | --- | --- | --- |
| COC(=O)[C@H](CCSSCC[C@H](NC(C)=O)C(=O)OC)NC(C)=O (racemic) [N,N′-diacetyl -DL-homocystine dimethyl ester] | 10 | 46 |  |
| Cc1c(C)c2c(c(C)c1O)CCC(C)(CCCC(C)CCCC(C)CCCC(C)C)O2 (racemic) [dl-α-tocopherol] |  |  | Wrinkle score (group average) (Hairless mice (SKH-1); 5% alone, 2nd week): 2.0; Wrinkle score (group average) (Hairless mice (SKH-1); 5% alone, 3rd week): 3.0; Wrinkle score (group average) (Hairless mice (SKH-1); 5% alone, 4th week): 2.5; Wrinkle score (group average) (Hairless mice (SKH-1); 5% alone, 5th week): 3.5; AP-1 activation Inhibiting ratio (%) (AP-1; 10 μM): 5%; AP-1 activation Inhibiting ratio (%) (AP-1; 100 μM): −1% |
| CCCCC(CC)COC(=O)C=Cc1ccc(OC)cc1 (stereo not shown) [2-ethylhexyl p-methoxycinnamate] |  |  | Wrinkle score (group average) (Hairless mice (SKH-1); 3% alone, 2nd week): 0.0; Wrinkle score (group average) (Hairless mice (SKH-1); 3% alone, 3rd week): 0.5; Wrinkle score (group average) (Hairless mice (SKH-1); 3% alone, 4th week): 1.5; Wrinkle score (group average) (Hairless mice (SKH-1); 3% alone, 5th week): 0.5; AP-1 activation Inhibiting ratio (%) (AP-1; 10 μM): −20%; AP-1 activation Inhibiting ratio (%) (AP-1; 100 μM): 11% |
| COc1ccc(C(=O)CC(=O)c2ccc(C(C)(C)C)cc2)cc1 [4-tert-butyl-4′-methoxybenzoylmethane] |  |  | AP-1 activation Inhibiting ratio (%) (AP-1; 1 μM): −14%; AP-1 activation Inhibiting ratio (%) (AP-1; 10 μM): 17% |
| O=C1O[C@H]([C@@H](O)CO)C(O)=C1O [L (+) ascorbic acid] |  |  | Wrinkle score (group average) (Hairless mice (SKH-1); 5% alone, 2nd week): 1.0; Wrinkle score (group average) (Hairless mice (SKH-1); 5% alone, 3rd week): 2.0; Wrinkle score (group average) (Hairless mice (SKH-1); 5% alone, 4th week): 4.0; Wrinkle score (group average) (Hairless mice (SKH-1); 5% alone, 5th week): 4.0; AP-1 activation Inhibiting ratio (%) (AP-1; 0.1 mM): 1%; AP-1 activation Inhibiting ratio (%) (AP-1; 1 mM): 0% |
| CCOC(=O)[C@@H](N)CSSC[C@H](N)C(=O)OCC [L-cystine diethyl ester] |  | 50 | Inhibition ratio (%) of NF-κB activation (NF-κB; addition concentration 0.5 mM): >100% |
| CC(=O)N[C@@H](CSSC[C@H](NC(C)=O)C(=O)O)C(=O)O [N,N′ -diacetyl-L-cystine, N,N′-diacetyl-L-cystine, reference compound] |  |  | Inhibition ratio (%) of NF-κB activation (NF-κB; addition concentration 10 mM): 48%; Inhibition ratio (%) of NF-κB activation (NF-κB; addition concentration 30 mM): 67% |
| CCCC(=O)N[C@@H](CSSC[C@H](NC(=O)CCC)C(N)=O)C(N)=O [N,N′-di(n-butyryl)-L-cystine diamide] | 45 | 11 |  |
| CCCC(=O)N[C@@H](CSSC[C@H](NC(=O)CCC)C(=O)OC)C(=O)OC [N,N′-di(n-butyryl)-L-cystine dimethyl ester] | 52 | 79 |  |
| CCCCCCCCCC(=O)N[C@@H](CSSC[C@H](NC(=O)CCCCCCCCC)C(=O)OC)C(=O)OC [N,N′-di(n-decanoyl)-L-cystine dimethyl ester] | 56 | 68 |  |
| CCCCCCC(=O)N[C@@H](CSSC[C@H](NC(=O)CCCCCC)C(=O)OC)C(=O)OC [N,N′-di(n-heptanoyl)-L-cystine dimethyl ester] | 25 | 103 |  |
| CCCCCC(=O)N[C@@H](CSSC[C@H](NC(=O)CCCCC)C(=O)OC)C(=O)OC [N,N′-di(n-hexanoyl)-L-cystine dimethyl ester] | 43 | 77 |  |
| CCCCCCCC(=O)N[C@@H](CSSC[C@H](NC(=O)CCCCCCC)C(=O)OC)C(=O)OC [N,N′-di(n-octanoyl)-L-cystine dimethyl ester] | 33 | 91 |  |
| CCC(=O)N[C@@H](CSSC[C@H](NC(=O)CC)C(=O)OC)C(=O)OC [N,N′-di(n-propionyl)-L-cystine dimethyl ester] | 17 | 54 |  |
| CCCCC(=O)N[C@@H](CSSC[C@H](NC(=O)CCCC)C(N)=O)C(N)=O [N,N′-di(n-valeryl)-L-cystine diamide] | 8 | 53 |  |
| CCCCC(=O)N[C@@H](CSSC[C@H](NC(=O)CCCC)C(=O)OC)C(=O)OC [N,N′-di(n-valeryl)-L-cystine dimethyl ester] | 18 | 64 |  |
| CCOC(=O)[C@H](CSSC[C@H](NC(C)=O)C(=O)OCC)NC(C)=O [N,N′-diacetyl-L-cystine diethyl ester] | 37 | 107 |  |
| CC(=O)N[C@@H](CSSC[C@H](NC(C)=O)C(=O)OC(C)C)C(=O)OC(C)C [N,N′-diacetyl-L-cystine diisopropyl ester] | 19 | 48 |  |
| CCCCCCCCCCCC(=O)N[C@@H](CSSC[C@H](NC(=O)CCCCCCCCCCC)C(=O)OC)C(=O)OC [N,N′-dilauroyl-L-cystine dimethyl ester] | 52 | 59 |  |
| COC(=O)[C@H](CSC(C)=O)NC(C)=O [N,S-diacetyl-L-cystine methyl ester] | 20 | 31 |  |
| CCOC(=O)[C@H](CSSC[C@H](N)C(=O)O)NC(C)=O [N-acetyl-L-cystine ethyl ester] | 31 | 74 |  |
| CC(=O)N[C@@H](CSSC[C@H](N)C(=O)O)C(=O)OC(C)C [N-acetyl-L-cystine isopropylester] | 21 | 82 |  |
| COC(=O)[C@H](CSSC[C@H](N)C(=O)O)NC(C)=O [N-acetyl-L-cystine methyl ester] | 28 | 95 |  |
| CCCCCCCCCCCC(=O)N[C@@H](CSSC[C@H](N)C(=O)O)C(=O)OC [N-lauroyl-L-cystine methyl ester] | 36 | 43 |  |
| CCCCCCCCCCCC(=O)N[C@@H](CSSC[C@H](N)C(=O)O)C(=O)O [N-lauroyl-L-cystine] |  | 14 | Inhibition ratio (%) of NF-κB activation (NF-κB; addition concentration 0.5 mM): 86% |
| O=C(O)c1ccccc1O [Salicylic acid] |  |  | Wrinkle score (group average) (Hairless mice (SKH-1); 5% alone, 2nd week): 2.0; Wrinkle score (group average) (Hairless mice (SKH-1); 5% alone, 3rd week): 1.5; Wrinkle score (group average) (Hairless mice (SKH-1); 5% alone, 4th week): 1.5; Wrinkle score (group average) (Hairless mice (SKH-1); 5% alone, 5th week): 2.5 |
| CC1(C)[C@@H](O)CC[C@]2(C)[C@H]3C(=O)C=C4[C@@H]5C[C@@](C)(C(=O)O)CC[C@]5(C)CC[C@@]4(C)[C@]3(C)CC[C@@H]12 [glycyrrhetinic acid] |  |  | AP-1 activation Inhibiting ratio (%) (AP-1; 10 μM): 2%; AP-1 activation Inhibiting ratio (%) (AP-1; 100 μM): −104% |
| CC1(C)[C@@H](O[C@H]2O[C@H](C(=O)O)[C@@H](O)[C@H](O)[C@H]2O[C@@H]2O[C@H](C(=O)O)[C@@H](O)[C@H](O)[C@H]2O)CC[C@]2(C)[C@H]3C(=O)C=C4[C@@H]5C[C@@](C)(C(=O)O)CC[C@]5(C)CC[C@@]4(C)[C@]3(C)CC[C@@H]12 [glycyrrhizic acid] |  |  | AP-1 activation Inhibiting ratio (%) (AP-1; 0.1 mM): 3%; AP-1 activation Inhibiting ratio (%) (AP-1; 1 mM): −70% |
| S=C(S)N1CCCC1 [pyrrolidine dithiocarbamate, reference compound] | 9 |  | Inhibition ratio (%) of NF-κB activation (NF-κB; addition concentration 0.005 mM): −2%; NF-κB activation inhibiting function (in words) (NF-κB; summary of Tables 2a and 2b): did not exhibit the NF-κKB activation inhibiting function |
